Patent publication US7638540B2, “Benzofuran compound and medicinal composition containing the same” (The New Industry Research Organization, priority 2003, dated 2009)

What was measured:
human BLT2 = target: T1, human BLT2 (Homo sapiens, UniProt Q9NPC1); assay: LTB4-induced increase in intracellular calcium ion concentration in CHO cells expressing human BLT2 (Fluo-3, Flexstation); type: cell-based; conditions: LTB4 100 nM final; for Suppressive effect on increase in intracellular calcium ion concentration compared with ZK158252 (in words): compound 10 μM final
T1 construct: expressed in transfected cells; host or cells: CHO cells
T1 sequence (Q9NPC1 1-358): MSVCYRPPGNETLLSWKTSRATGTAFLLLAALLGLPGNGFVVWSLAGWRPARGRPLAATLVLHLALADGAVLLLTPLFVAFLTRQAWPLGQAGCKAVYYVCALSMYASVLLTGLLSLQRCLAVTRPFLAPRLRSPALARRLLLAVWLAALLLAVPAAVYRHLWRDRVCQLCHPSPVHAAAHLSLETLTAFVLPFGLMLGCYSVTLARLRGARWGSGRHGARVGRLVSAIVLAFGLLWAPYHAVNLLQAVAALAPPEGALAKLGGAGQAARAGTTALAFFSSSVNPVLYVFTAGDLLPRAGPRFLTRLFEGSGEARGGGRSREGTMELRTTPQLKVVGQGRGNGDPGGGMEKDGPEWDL
Experimental: (§1) CHO cells habouring a gene encoding human BLT1 or human BLT2 and functionally expressing the receptor were seeded in a 96 well plate at 4×10^4 cells/well, and cultured at 37° C. for 60 min. The culture supernatant was removed and a loading buffer (100 μl) containing 4 μM Fluo-3 (manufactured by Dojindo), 0.04% pluoronic acid (manufactured by Sigma) and 1% serum was added. The mixture was culture at 37° C. for 30 min to introduce Fluo-3 into the cells. After culture, the cells were washed with a buffer, and a buffer containing various compounds (10 μM (final concentration)) was added, and then 100 nM (final concentration) of LTB4 was added. Changes in the intracellular calcium ion concentration were measured with Flexstation (manufactured by Molecular Devices Corporation) as increase in the fluorescence intensity (area under a curve in a time-course graph of fluorescence intensity in 10 min measurement). As a positive control of BLT1 and BLT2 antagonists, ZK158252 was used.

LTB4 receptor = assay: TXB2 release from guinea pig eosinophils stimulated with LTB4 (LTB4 receptor antagonist activity); type: cell-based; conditions: 10^−3 M test compound (37.5 μl) added to 300 μl cell suspension, then 10^−7 M LTB4 (37.5 μl), 37° C. 15 min, positive control 100, negative control 0, N.D. = TXB2 concentration at measurement limit or less
Experimental: The LTB4 receptor antagonist activity of the test compound was examined using, as an index, thromboxane B2 (TXB2) released when stimulating eosinophil of guinea pig with LTB4.
Based on the method described in Japanese Journal of Pharmacology, vol. 70, p. 337-345 (1996) etc., eosinophils of guinea pig were prepared. A cell suspension (300 μl, 1.25×10^6 cells/ml) was placed in a 5 ml polypropylene test tube and, after incubation at 37° C. for 5 min., 10^−3 M test compound (37.5 μl) dissolved in 0.1% DMSO aqueous solution was added and the cells were continuously cultured for 5 min. Then, 10^−7 M LTB4 (37.5 μl) was added to induce the reaction and the cells were incubated at 37° C. for 15 min. The reaction was quenched in ice water, and the culture was centrifuged at 4° C., 3000 rpm for 10 min. The obtained supernatant was prepared as a sample for TXB2 measurement, and preserved at −80° C. before use for the measurement. The quantitation of TXB2 was performed using a TXB2 enzyme immunoassay kit (manufactured by Cayman Chemical Company). The release ratio (%) of TXB2 from the eosinophils was determined by the following formula: release ratio (%) of TXB2=[(average value of test compound administration group−average value of negative control group)/(average value of positive control group−average value of negative control group)]×100
As used herein, the positive control group means a group to which stimulation with LTB4 was applied but the same volume of a medium was given instead of the test compound, and the negative control group means a group to which stimulation with LTB4 was not applied, the same volume of a medium was given instead of LTB4, and the same volume of a medium was given instead of the test compound. When the release ratio of TXB2 is smaller than 0, it means that the measured TXB2 concentration was lower than that of the negative control group. When the TXB2 concentration in the sample was the measurement limit or less, N.D. is indicated.

human BLT1 = target: T2, human BLT1 (Homo sapiens, UniProt Q15722); assay: LTB4-induced increase in intracellular calcium ion concentration in CHO cells expressing human BLT1 (Fluo-3, Flexstation); type: cell-based; conditions: CHO cells with human BLT1; LTB4 100 nM final; compound 10 μM final
T2 construct: expressed in transfected cells; host or cells: CHO cells
Experimental: as §1

T2 sequence (Q15722 whole entry): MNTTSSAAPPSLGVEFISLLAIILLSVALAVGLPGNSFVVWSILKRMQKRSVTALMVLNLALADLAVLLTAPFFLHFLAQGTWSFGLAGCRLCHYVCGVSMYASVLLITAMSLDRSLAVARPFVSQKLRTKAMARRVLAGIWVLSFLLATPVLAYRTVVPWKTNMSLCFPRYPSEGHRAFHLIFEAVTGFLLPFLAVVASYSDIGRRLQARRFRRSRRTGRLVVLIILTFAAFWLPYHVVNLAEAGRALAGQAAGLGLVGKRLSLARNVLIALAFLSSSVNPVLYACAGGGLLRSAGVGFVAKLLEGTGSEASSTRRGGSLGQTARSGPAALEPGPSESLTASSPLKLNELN

Row | SMILES | melting point | Suppressive effect on increase in intracellular calcium ion concentration compared with ZK158252 (in words) (human BLT2) | Amount of TXB2 release (%) (LTB4 receptor) | Suppression of increase in intracellular calcium ion concentration due to LTB4 stimulation (in words) (human BLT2; CHO cells with human BLT2, positive control antagonist) | Suppression of increase in intracellular calcium ion concentration due to LTB4 stimulation (in words) (human BLT1)
1 | COc1cccc(NC(=O)/C=C(\C)c2cc3cccc(OCCCC(=O)O)c3o2)c1 [Example 29, (E)-4-{2-[2-(3-methoxyphenylcarbamoyl)-1-methylvinyl]benzofuran-7-yloxy}butyric acid] | 155.5 to 157.5 °C | almost of the same level as or not less than that by ZK158252 | −0.19% |  | 
2 | CCOC(=O)CCCOc1cccc2cc(/C(C)=C/C(=O)NCCc3ccc(OC)c(OC)c3)oc12 [Example 49, Ethyl (E)-4-(2-{2-[2-(3,4-dimethoxyphenyl)ethylcarbamoyl]-1-methylvinyl}benzofuran-7-yloxy)butyrate] | 114 to 115.5 °C | almost of the same level as or not less than that by ZK158252 | 2.37% |  | 
3 | CCOC(=O)CCCOc1cccc2cc(/C(C)=C/C(=O)N3CCOCC3)oc12 [Example 30, Ethyl (E)-4-[2-(1-methyl-3-morpholino-3-oxo-1-propenyl)benzofuran-7-yloxy]butyrate] | 90 to 94.8 °C | almost of the same level as or not less than that by ZK158252 | 0.086% |  | 
4 | O=C(O)CCC/C=C1\CCCCC1/C=C/C=C/C(O)C1(CC#Cc2ccccc2)CCC1 (centres unmarked) [ZK158252, reference compound] |  |  |  | significantly suppressed | significantly suppressed
